According to patent publication US11912701B2, “Protein kinase inhibitors for promoting liver regeneration or reducing or preventing hepatocyte death” (HEPAREGENIX GMBH, priority 2018, dated 2024):

How the values were obtained:
[1] = target: T1, MKK4 (Homo sapiens, UniProt P45985); assay: KINOMEscan competition binding assay, MKK4; conditions: residual percent of control binding (PoC) at 100 nM
T1 construct: S84/D399; host or cells: HEK-293
T1 sequence (P45985 84-399): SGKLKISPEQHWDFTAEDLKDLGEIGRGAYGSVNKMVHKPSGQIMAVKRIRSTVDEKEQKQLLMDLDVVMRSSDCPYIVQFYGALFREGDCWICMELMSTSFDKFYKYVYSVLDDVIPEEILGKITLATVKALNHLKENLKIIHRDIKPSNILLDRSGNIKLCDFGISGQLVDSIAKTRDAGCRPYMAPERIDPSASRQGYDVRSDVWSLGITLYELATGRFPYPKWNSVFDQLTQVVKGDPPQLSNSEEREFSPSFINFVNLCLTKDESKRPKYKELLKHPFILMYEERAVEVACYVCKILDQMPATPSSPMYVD
In short: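 KINOMEscan competition of compound versus immobilized ligand for DNA-tagged MKK4 expressed in HEK-293 cells. Bound kinase was quantified by qPCR after elution.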

[2] = target: T2, BRaf (Homo sapiens, UniProt P15056); assay: KINOMEscan competition binding assay, BRaf; conditions: ratio PoC (off-target)/PoC (MKK4)
T2 construct: purchased ProQinase GmbH, Freiburg, Germany (33PanQinase Assay Service)
In short: (§1)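 DNA-tagged kinases expressed in HEK-293 cells compete between immobilized ligand on blocked beads and test compound at 100 nM; kinase retained on beads quantified by qPCR of the tag.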

[3] = target: T3, MKK4 (Homo sapiens, UniProt P45985); assay: 33PanQinase enzyme assay, MKK4; type: biochemical; conditions: assay 'IC50'; read-out: Potency MKK4 (IC50)
T3 construct: purchased ProQinase GmbH, Freiburg, Germany (33PanQinase Assay Service)
T3 sequence (P45985 1-399): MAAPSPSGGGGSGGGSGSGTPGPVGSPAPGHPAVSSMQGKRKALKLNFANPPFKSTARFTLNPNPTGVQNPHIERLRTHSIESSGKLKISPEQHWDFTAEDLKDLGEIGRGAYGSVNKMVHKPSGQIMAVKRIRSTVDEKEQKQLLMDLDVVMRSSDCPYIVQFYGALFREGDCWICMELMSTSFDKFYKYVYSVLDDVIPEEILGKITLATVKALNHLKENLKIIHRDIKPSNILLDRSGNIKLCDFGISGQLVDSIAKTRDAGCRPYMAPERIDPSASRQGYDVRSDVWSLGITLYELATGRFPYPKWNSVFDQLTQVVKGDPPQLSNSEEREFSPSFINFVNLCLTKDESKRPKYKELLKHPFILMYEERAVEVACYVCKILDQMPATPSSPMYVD
In short: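 Radiometric 33PanQinase assay: kinase, substrate, ATP and compound in standard buffer, 60 min at 30 °C; 33Pi incorporation read by scintillation counting.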

[4] = target: T2, BRaf; assay: 33PanQinase enzyme assay, BRaf; type: biochemical; conditions: ratio IC50(BRaf)/IC50(MKK4)
In short: (§2)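 Radiometric kinase reactions with ATP, test compound in DMSO and enzyme/substrate mix were incubated 60 min at 30 °C, stopped with 2% H3PO4 and washed; incorporated 33Pi was counted by scintillation. Single-concentration data are given as % residual activity; IC50 values come from least-squares curve fits.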

[5] = target: T4, MKK7 (Homo sapiens, UniProt O14733); assay: KINOMEscan competition binding assay, MKK7; parameters: M1/R419; host or cells: HEK-293; conditions: ratio PoC (off-target)/PoC (MKK4)
T4 sequence (O14733 1-419): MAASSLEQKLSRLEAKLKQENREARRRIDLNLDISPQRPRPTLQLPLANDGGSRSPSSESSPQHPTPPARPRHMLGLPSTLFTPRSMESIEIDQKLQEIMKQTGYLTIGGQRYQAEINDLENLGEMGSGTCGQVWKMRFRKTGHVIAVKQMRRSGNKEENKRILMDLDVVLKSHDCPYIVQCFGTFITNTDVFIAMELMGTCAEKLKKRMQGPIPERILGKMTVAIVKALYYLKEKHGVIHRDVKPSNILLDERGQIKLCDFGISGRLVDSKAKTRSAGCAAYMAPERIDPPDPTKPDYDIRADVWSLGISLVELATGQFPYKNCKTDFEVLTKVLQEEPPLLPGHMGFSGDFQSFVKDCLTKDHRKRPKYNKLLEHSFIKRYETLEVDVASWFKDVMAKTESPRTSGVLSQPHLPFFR
In short: as §1

[6] = target: T5, JNK1 (Homo sapiens, UniProt P45983); assay: KINOMEscan competition binding assay, JNK1; parameters: M1/Q384; host or cells: HEK-293; conditions: ratio PoC (off-target)/PoC (MKK4)
In short: as §1
Target sequence in this assay (P45983 1-384 isoform P45983-2): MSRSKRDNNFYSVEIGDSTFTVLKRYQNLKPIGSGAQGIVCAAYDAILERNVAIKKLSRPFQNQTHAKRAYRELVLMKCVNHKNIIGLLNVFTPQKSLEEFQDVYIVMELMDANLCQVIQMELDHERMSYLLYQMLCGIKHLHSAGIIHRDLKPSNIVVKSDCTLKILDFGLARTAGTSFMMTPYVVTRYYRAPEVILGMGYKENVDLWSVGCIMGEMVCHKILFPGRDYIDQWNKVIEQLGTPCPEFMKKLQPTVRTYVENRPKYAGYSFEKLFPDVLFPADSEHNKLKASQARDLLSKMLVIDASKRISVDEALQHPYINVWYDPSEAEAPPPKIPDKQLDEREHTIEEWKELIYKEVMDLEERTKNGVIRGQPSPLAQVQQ

[7] = target: T5, JNK1; assay: 33PanQinase enzyme assay, JNK1; type: biochemical; parameters: purchased ProQinase GmbH, Freiburg, Germany (33PanQinase Assay Service); conditions: ratio IC50(JNK1)/IC50(MKK4)
In short: as §2
Target sequence in this assay (P45983 whole entry): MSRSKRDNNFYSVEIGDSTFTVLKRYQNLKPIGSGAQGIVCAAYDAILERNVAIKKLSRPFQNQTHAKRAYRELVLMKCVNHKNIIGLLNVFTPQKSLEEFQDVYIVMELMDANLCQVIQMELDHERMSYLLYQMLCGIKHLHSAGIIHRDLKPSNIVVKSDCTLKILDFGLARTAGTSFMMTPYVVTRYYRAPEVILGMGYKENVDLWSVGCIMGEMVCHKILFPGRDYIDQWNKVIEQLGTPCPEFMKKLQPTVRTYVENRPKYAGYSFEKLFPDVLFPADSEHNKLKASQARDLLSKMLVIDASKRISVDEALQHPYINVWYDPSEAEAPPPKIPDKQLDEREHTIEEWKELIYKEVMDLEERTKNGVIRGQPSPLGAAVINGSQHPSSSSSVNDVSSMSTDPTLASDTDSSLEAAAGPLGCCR

[8] = target: T4, MKK7; assay: 33PanQinase enzyme assay, MKK7; type: biochemical; parameters: purchased ProQinase GmbH, Freiburg, Germany (33PanQinase Assay Service); conditions: ratio IC50(MKK7)/IC50(MKK4)
In short: as §2

T2 sequence (P15056 whole entry, species assumed): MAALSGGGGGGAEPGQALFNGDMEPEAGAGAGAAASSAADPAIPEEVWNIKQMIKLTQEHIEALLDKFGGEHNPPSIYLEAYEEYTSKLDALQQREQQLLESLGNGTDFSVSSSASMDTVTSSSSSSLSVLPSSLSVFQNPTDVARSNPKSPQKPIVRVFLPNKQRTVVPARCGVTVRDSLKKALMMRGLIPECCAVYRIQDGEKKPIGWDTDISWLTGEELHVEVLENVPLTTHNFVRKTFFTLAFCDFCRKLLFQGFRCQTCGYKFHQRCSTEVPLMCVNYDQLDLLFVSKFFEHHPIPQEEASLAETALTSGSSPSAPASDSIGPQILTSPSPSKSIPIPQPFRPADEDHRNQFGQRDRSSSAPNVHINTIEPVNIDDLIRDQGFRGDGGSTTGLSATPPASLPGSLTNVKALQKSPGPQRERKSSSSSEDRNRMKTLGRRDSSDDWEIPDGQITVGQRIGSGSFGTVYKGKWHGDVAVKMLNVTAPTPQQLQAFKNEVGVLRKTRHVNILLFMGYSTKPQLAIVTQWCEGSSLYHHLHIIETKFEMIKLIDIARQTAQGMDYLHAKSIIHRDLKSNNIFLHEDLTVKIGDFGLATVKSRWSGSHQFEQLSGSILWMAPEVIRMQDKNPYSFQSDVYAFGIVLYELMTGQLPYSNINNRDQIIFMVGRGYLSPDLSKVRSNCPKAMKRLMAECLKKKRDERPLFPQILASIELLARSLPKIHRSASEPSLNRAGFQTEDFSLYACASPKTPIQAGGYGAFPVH

Structure (SMILES) | MKK4 [% Ctrl @ 100 nM [1] | selectivity based on % Ctrl @100 nM vs. Braf [2] | IC50 [3] [nM] | Selectivity Braf, IC50(off-target)/IC50(MKK4) [4] | selectivity based on % Ctrl @100 nM vs. MKK7 [5] | selectivity based on % Ctrl @100 nM vs. JNK1 [6] | Selectivity JNK1, IC50(off-target)/IC50(MKK4) [7] | Selectivity IVIKK7, IC50(off-target)/IC50(MKK4) [8]
CCCS(=O)(=O)Nc1ccc(F)c(C(=O)c2c[nH]c3ncc(-c4ccc(N)nc4)cc23)c1F [Example 50] | +++ (PoC < 1) | ◯ (3 ≥ Ratio) | 100 to 1000 | ◯ (3 ≥ IC50(off-target)/IC50(MKK4)) | +++ (Ratio > 100) | +++ (Ratio > 100) | ◯ (3 ≥ IC50(off-target)/IC50(MKK4)) | +++ (IC50(off-target)/IC50(MKK4) > 100)
CCCS(=O)(=O)Nc1ccc(F)c(C(=O)c2c[nH]c3ncc(-c4ccc(S(N)(=O)=O)nc4)cc23)c1F [Example 53] | +++ (PoC < 1) | + (10 ≥ ratio > 3) | 100 to 1000 | ◯ (3 ≥ IC50(off-target)/IC50(MKK4)) | +++ (Ratio > 100) | +++ (Ratio > 100) | ◯ (3 ≥ IC50(off-target)/IC50(MKK4)) | +++ (IC50(off-target)/IC50(MKK4) > 100)
CCCS(=O)(=O)Nc1ccc(F)c(C(=O)c2c[nH]c3ncc(-c4ccc(S(C)(=O)=O)nc4)cc23)c1F [Example 77, N-(2,4-difluoro-3-(5-(6-(methylsulfonyl)pyridin-3-yl)-1H-pyrrolo[2,3-b]pyridine-3-carbonyl)phenyl)propane-1-sulfonamide] | +++ (PoC < 1) | ◯ (3 ≥ Ratio) | 100 to 1000 | ◯ (3 ≥ IC50(off-target)/IC50(MKK4)) | +++ (Ratio > 100) | +++ (Ratio > 100) | + (10 ≥ IC50(off-target)/IC50(MKK4) > 3) | +++ (IC50(off-target)/IC50(MKK4) > 100)
O=C(c1c(F)ccc(NS(=O)(=O)CCC(F)(F)F)c1F)c1c[nH]c2ncc(-c3ccc(N4CCOCC4)nc3)cc12 [Example 79, N-(2,4-difluoro-3-(5-(6-morpholinopyridin-3-yl)-1H-pyrrolo[2,3-b]pyridine-3-carbonyl)phenyl)-3,3,3-trifluoropropane-1-sulfonamide] | +++ (PoC < 1) | +++ (Ratio > 100) | < 100 | + (10 ≥ IC50(off-target)/IC50(MKK4) > 3) | +++ (Ratio > 100) | +++ (Ratio > 100) | ++ (100 ≥ IC50(off-target)/IC50(MKK4) > 10) | +++ (IC50(off-target)/IC50(MKK4) > 100)
O=C(c1c(F)ccc(NS(=O)(=O)CCC(F)(F)F)c1F)c1c[nH]c2ncc(-c3ccc(N4CCS(=O)(=O)CC4)nc3)cc12 [Example 81, N-(3-(5-(6-(1,1-dioxidothiomorpholino)pyridin-3-yl)-1H-pyrrolo[2,3-b]pyridine-3-carbonyl)-2,4-difluorophenyl)-3,3,3-trifluoropropane-1-sulfonamide] | +++ (PoC < 1) | +++ (Ratio > 100) | < 100 | + (10 ≥ IC50(off-target)/IC50(MKK4) > 3) | +++ (Ratio > 100) | +++ (Ratio > 100) | ++ (100 ≥ IC50(off-target)/IC50(MKK4) > 10) | +++ (IC50(off-target)/IC50(MKK4) > 100)
CCCS(=O)(=O)Nc1ccc(F)c(C(=O)c2c[nH]c3ncc(-c4ccc(C5CCC5)cc4)cc23)c1F [Example 82, N-(3-(5-(4-cyclobutylphenyl)-1H-pyrrolo[2,3-b]pyridine-3-carbonyl)-2,4-difluorophenyl)propane-1-sulfonamide] | +++ (PoC < 1) | +++ (Ratio > 100) | 100 to 1000 | ◯ (3 ≥ IC50(off-target)/IC50(MKK4)) | +++ (Ratio > 100) | +++ (Ratio > 100) | + (10 ≥ IC50(off-target)/IC50(MKK4) > 3) | +++ (IC50(off-target)/IC50(MKK4) > 100)
CCCS(=O)(=O)Nc1ccc(F)c(C(=O)c2c[nH]c3ncc(-c4cccc(O)c4)cc23)c1F [Example 101, N-(2,4-difluoro-3-(5-(3-hydroxyphenyl)-1H-pyrrolo[2,3-b]pyridine-3-carbonyl)phenyl)propane-1-sulfonamide] | ++ (1 ≤ PoC < 3) | ◯ (3 ≥ Ratio) | 100 to 1000 | ◯ (3 ≥ IC50(off-target)/IC50(MKK4)) | ++ (100 ≥ ratio > 10) | ++ (100 ≥ ratio > 10) | ◯ (3 ≥ IC50(off-target)/IC50(MKK4)) | +++ (IC50(off-target)/IC50(MKK4) > 100)
CCCS(=O)(=O)Nc1ccc(F)c(C(=O)c2c[nH]c3ncc(-c4ccccc4OC)cc23)c1F [Example 102, N-(2,4-difluoro-3-(5-(2-methoxyphenyl)-1H-pyrrolo[2,3-b]pyridine-3-carbonyl)phenyl)propane-1-sulfonamide] | ++ (1 ≤ PoC < 3) | ++ (100 ≥ ratio > 10) | 100 to 1000 | ◯ (3 ≥ IC50(off-target)/IC50(MKK4)) | ++ (100 ≥ ratio > 10) | ++ (100 ≥ ratio > 10) | + (10 ≥ IC50(off-target)/IC50(MKK4) > 3) | +++ (IC50(off-target)/IC50(MKK4) > 100)
